Target: HEK293 cells with stable expression of the GRIN1 gene and tetracycline-inducible expression of the GRIN2B gene (NMDA receptor, NR2B) (Homo sapiens, UniProt Q13224)
Test: Fluo-8 Ca2+ flux assay: reversal of Ro 25-6981-mediated suppression of the Ca2+ response to co-agonist (glutamate/glycine); further: test concentration or dose not given here
Format: cell-based
Settings: reversal of the Ro 25-6981 suppression of the Ca2+ response to co-agonist (glutamate/glycine)

HEK293 cells with stable expression of the GRIN1 gene and tetracycline-inducible expression of the GRIN2B gene (NMDA receptor, NR2B), sequence (Q13224 27-1484, other chains not shown): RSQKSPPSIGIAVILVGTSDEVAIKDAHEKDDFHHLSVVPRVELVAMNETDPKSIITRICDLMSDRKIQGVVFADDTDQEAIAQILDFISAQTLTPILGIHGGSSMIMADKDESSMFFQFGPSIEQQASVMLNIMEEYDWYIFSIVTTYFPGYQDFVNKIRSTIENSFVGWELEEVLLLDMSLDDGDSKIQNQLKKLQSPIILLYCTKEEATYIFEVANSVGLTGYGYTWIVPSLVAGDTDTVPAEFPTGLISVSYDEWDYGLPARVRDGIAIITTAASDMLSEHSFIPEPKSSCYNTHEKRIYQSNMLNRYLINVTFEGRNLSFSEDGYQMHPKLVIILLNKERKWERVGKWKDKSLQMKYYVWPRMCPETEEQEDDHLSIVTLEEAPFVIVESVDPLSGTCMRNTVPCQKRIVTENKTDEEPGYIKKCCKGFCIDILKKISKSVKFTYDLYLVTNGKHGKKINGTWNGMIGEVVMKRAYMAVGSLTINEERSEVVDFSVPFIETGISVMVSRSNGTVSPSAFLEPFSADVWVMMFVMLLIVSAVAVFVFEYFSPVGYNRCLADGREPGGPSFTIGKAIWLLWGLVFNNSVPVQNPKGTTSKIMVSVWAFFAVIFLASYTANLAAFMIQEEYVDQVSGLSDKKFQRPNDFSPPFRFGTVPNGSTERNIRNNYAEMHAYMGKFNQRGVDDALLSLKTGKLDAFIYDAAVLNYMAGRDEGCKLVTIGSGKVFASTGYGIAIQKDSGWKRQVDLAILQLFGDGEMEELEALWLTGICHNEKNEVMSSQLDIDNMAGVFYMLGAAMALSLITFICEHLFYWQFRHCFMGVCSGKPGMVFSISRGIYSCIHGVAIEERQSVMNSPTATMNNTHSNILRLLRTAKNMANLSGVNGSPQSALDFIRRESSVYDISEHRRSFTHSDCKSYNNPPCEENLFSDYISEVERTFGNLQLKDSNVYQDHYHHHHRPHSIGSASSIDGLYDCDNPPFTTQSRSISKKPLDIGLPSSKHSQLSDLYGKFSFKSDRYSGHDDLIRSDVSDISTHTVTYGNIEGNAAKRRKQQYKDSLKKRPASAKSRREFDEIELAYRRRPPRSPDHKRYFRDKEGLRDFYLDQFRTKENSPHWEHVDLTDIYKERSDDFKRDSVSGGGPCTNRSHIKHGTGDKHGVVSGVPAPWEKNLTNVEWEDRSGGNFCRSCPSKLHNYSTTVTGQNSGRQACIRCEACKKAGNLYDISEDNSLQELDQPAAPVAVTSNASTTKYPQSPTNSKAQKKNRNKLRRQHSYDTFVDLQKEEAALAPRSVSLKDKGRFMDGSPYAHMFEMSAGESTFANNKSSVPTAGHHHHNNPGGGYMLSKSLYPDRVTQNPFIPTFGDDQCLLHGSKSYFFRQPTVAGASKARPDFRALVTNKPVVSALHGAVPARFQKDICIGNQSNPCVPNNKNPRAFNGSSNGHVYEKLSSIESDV

Structure (SMILES) | Response Recovered (%)
O=C(Cn1ccc2scc(-c3cncc(Cl)n3)c2c1=O)N1CC(F)(CF)C1 [Example 146, 3-(6-chloropyrazin-2-yl)-5-(2-(3-fluoro-3-(fluoromethyl)azetidin-1-yl)-2-oxoethyl)thieno[3,2-c]pyridin-4(5H)-one] | −3.8
O=C(Cn1ccc2scc(-c3ccc(F)c(Cl)c3)c2c1=O)N1CC2(COC2)C1 [Example 67, 3-(3-chloro-4-fluroophenyl)-5-(2-oxo-2-(2-oxa-6-azaspiro[3.3]heptan-6-yl)ethyl)thieno[3,2-c]pyridin-4(5H)-one] | 4.4
O=C(Cn1ccc2scc(-c3ccc(F)c(Cl)c3)c2c1=O)N1CC2(CCN2)C1 [Example 97, 3-(3-chloro-4-fluorophenyl)-5-(2-oxo-2-(1,6-diazaspiro[3.3]heptan-6-yl)ethyl)thieno[3,2-c]pyridin-4(5H)-one 2,2,2-trifluoroacetate] | 2.8
O=C(Cn1cnc2ccn(-c3ccc(Cl)cc3)c2c1=O)N1CC(F)(F)C1 [Example 374, 5-(4-chlorophenyl)-3-(2-(3,3-difluoroazetidin-1-yl)-2-oxoethyl)-3H-pyrrolo[3,2-d]pyrimidin-4(5H)-one] | 4
COC1(C)CN(C(=O)Cn2ccc3scc(-c4ccc(F)c(Cl)c4)c3c2=O)C1 [Example 62, 3-(3-chloro-4-fluorophenyl)-5-(2-(3-methoxy-3-methylazetidin-1-yl)-2-oxoethyl)thieno[3,2-c]pyridin-4(5H)-one] | 11
O=C(Cn1ccc2scc(-c3ccc(Cl)c(C(F)(F)F)c3)c2c1=O)N1CC[C@@H](F)C1 [Example 17, (R)-3-(4-chloro-3-(trifluoromethyl)phenyl)-5-(2-(3-fluoropyrrolidin-1-yl)-2-oxoethyl)thieno[3,2-c]pyridin-4(5H)-one] | 99
Cn1cc(-c2ccc(Cl)cc2)c2c(=O)n(CC(=O)N3CCCC3)cnc21 [Example 151, 5-(4-chlorophenyl)-7-methyl-3-(2-oxo-2-(pyrrolidin-1-yl)ethyl)-3H-pyrrolo[2,3-d]pyrimidin-4(7H)-one] | 17
CCC1(F)CN(C(=O)Cn2ccc3c(c(-c4cnc(Cl)c(Cl)c4)cn3C3CC3)c2=O)C1 [Example 294, 1-cyclopropyl-3-(5,6-dichloropyridin-3-yl)-5-(2-(3-ethyl-3-fluoroazetidin-1-yl)-2-oxoethyl)-1,5-dihydro-4H-pyrrolo[3,2-c]pyridin-4-one] | 88
